“Also recorded” adds a separate entry of the source.
Key:
[1] = Genetic toxicology (reverse mutation, chromosomal aberration, micronucleus)
Experimental: Protocol No. NB_KDS_ADP1_21 Confidential administration of the test substance to rats at a dose of 50-200 mg/kg daily for 2 weeks, there were no deaths.
As a result of oral administration to rats at doses of 30, 50, 75 and 100 mg/kg once daily for 4 weeks, […]
testis, epididymis and lungs. Renal epithelial hyperplasia and inflammatory cells infiltration in the renal pelvis observed in the male and female dose groups of 75 mg/kg or more, germ cell degeneration/loss and seminiferous tubules atrophy observed in the male dose groups of 75 mg/kg or more, and vacuole/degeneration of outer medullary tubules and basophilic tubules observed in the female dose groups were judged to be adverse effects due to administration of the test substance. Proximal tubular hyaline granules in the kidney, basophilic tubules, testicular germ cell degeneration/loss, and alveolar macrophage aggregation in the lungs(females) were observed even after a 2-week recovery period. Accordingly, in repeated administrations of rats for 4 weeks, the NOAEL(No Observed Adverse Effect Level) was determined to be 50 mg/kg/day for males and 30 mg/kg for females. As a result of repeated oral administrations of 0, 25, 50 or 100 mg/kg/day for 2 weeks to Cynomolgus […]
male dose group of 50 mg/kg/day, and a distal tubule/collecting duct dilatation and papillary duct epithelial cell […]
the NOAEL was judged as 40 mg/kg for both males and females. As a result of the safety pharmacology test, […]
the genetic toxicology, the reverse mutation test, the chromosomal aberration assay, and the micronucleus assay […]
In a pharmacokinetic study, plasma PK parameters were measured after a single oral administration of […]
a result of measuring excretion into urine, feces, expiration, and bile, 6.9% was excreted in urine and 48.5% in feces, respectively, up to 168 hours after administration. Excretion to air through respiration was about 0.0% until 48 hours after administration, and 44.1% of the administered radioactivity concentration was present in the body (carcass). […]

[2] = system: white matter stroke rat model; conditions: cited from earlier work
rat SCI model [3] = assay: TEM and TB staining of rat spinal cord (myelination); assay type: in vivo, Sprague-Dawley (SD) rats
Experimental: Spinal cord tissues were prefixed in Karnovsky’s fixative (2% glutaraldehyde, 2% paraformaldehyde in 0.1 M phosphate buffer) overnight at 4 °C. After postfixation in 1% osmium tetroxide (OsO4), the samples were dehydrated through a graded ethanol series and embedded in epoxy resin.
For TB staining, 250–300 nm semi-thin sections were obtained via an ultramicrotome (Leica Ultracut UCT, Leica Microsystems, Austria), stained with 0.5% toluidine blue, and imaged using a light microscope (Olympus IX71).
For TEM, 80–100 nm ultrathin sections were cut using a diamond knife (Diatome, Switzerland), mounted on 300-mesh Gilder grids, and stained with 6% uranyl acetate and lead citrate. Images were acquired using a transmission electron microscope (JEM 1011, JEOL, Tokyo, Japan) as previously described.
All TB and TEM analyses were performed on spinal cord tissues collected at the lesion epicenter, where myelination is most affected by injury.

[4] = GLP toxicity tests in rats
rat SCI model [5] = assay: Immunohistochemistry of injured rat spinal cord; assay type: in vivo, Sprague-Dawley (SD) rats
Experimental: Immunohistochemistry was performed as previously described.[70] The tissue sections were blocked and treated with primary antibodies. After overnight incubation at 4 °C, species-specific fluorescent secondary antibodies were applied for visualization. The tissue sections were then stained with 4’,6-diamidino-2-phenylindole (DAPI) during mounting. This protocol allows a detailed assessment of various cellular markers involved in SCI and recovery processes.
The secondary antibodies used included FITC-donkey anti-mouse IgG (H + L) (1:150, 715-095-151), Cy^TM3-donkey anti-mouse IgG (H + L) (1:600, 715-165-151), FITC-donkey anti-rabbit IgG (H + L) (1:150, 711-095-152), Alexa Fluor 594-donkey anti-rabbit IgG (H + L) (1:500, 711-585-152), Alexa Fluor 647-donkey anti-rabbit IgG (H + L) (1:500, 711-605-152), Cy^TM3-donkey anti-chicken IgG (H + L) (1:600, 703-165-155), DyLightTM405-donkey anti-chicken IgY + + (H + L) (1:600, 703-476-155), Alexa Fluor 488-donkey anti-chicken IgY (IgG) (H + L) (1:500, 703-545-155), Alexa Fluor 594-donkey anti-chicken IgY (IgG) (H + L) (1:500, 703-585-155), Alexa Fluor 488-donkey anti-goat IgG (H + L) (1:500, 705-545-003), and Alexa Fluor 647-donkey anti-goat IgG (H + L) (1:300, 705-606-147). All secondary antibodies were purchased from Jackson ImmunoResearch.
The fluorescence images were observed via confocal laser scanning microscopy (LSM700 or LSM710, Carl Zeiss), and analyzed via the ImageJ (NIH) software. For visualizing the mCh-positive signals of proliferating or proliferated cells, Z-stack images acquired in 1-μm steps were processed for 3D surface rendering of mCh-positive signals using IMARIS software (version 9.0.1, Oxford Instruments).

[6] = SCI+KDS 10mpk, 20mpk, and 30mpk vs SCI+V, PI 10w
[7] = SCI+KDS 1d/Re vs SCI+V and SCI+KDS 1d/No, PI 10w

CS(=O)(=O)O.C[C@H](NCc1ccc(-c2ccc(C(F)(F)F)cc2)cc1)C(N)=O [KDS2010, (S)-2-(((4’-Trifluoromethylbiphenyl-4-yl)methyl)amino)propanamide methane-sulfonate]
chromosomal aberration assay [1]: negative | micronucleus assay [1]: negative | reverse mutation test [1]: negative | motor performance [2]: improve motor performance | myelination (TEM) (rat SCI model [3]; SCI + KDS 2w at PI 10w): fully recovered | number of myelinated axons (rat SCI model [3]; SCI + KDS 2w, PI 2-10w): gradual increase | density of cavities (rat SCI model [3]; SCI + KDS 2w, TB staining, PI 2-10w): gradual decrease | human equivalent dose (HED) of MTD ([4]; from rat MTD): 6774.2 mg/60kg | histopathology (kidneys, bladder, testis, epididymis and lungs) ([4]; oral 30, 50, 75 and 100 mg/kg once daily for 4 weeks): histopathological changes | mortality ([4]; oral 50-200 mg/kg daily for 2 weeks): no deaths | GFAP intensity (rat SCI model [5]; KDS2010 treatment compared with SCI + V): significantly reduced | intensity of TrkB in neurons, oligodendrocytes, and astrocytes (rat SCI model [5]; MAOB inhibition from the subacute phase, PI 10w): significantly increased | neurons positive for both Ki67 and NeuN (rat SCI model [5]; SCI + KDS 2w vs SCI + V, PI 10w): significantly increased; also recorded: significant increase | intensity of GABA in GFAP-positive astrocytes (rat SCI model [5]; SCI + KDS 2w, 10 mpk, PI 10w): significantly recovered; also recorded: significantly attenuated | MAP2 intensity (rat SCI model [5]; SCI + KDS 2w, PI 10w): fully restored | MBP intensity (rat SCI model [5]; SCI + KDS 2w, PI 10w): significant recovery | expression of astrocytic GFAP and MAOB (rat SCI model [5]; SCI + KDS 2w, PI 10w): returned to normal levels | intensity of proBDNF in astrocytes and neurons (rat SCI model [5]; SCI + KDS 2w, PI 10w): significantly increased | number of NeuN-positive neurons (rat SCI model [5]; SCI + KDS 2w, PI 10w): significant recovery | oligodendrocytes positive for both Ki67 and MBP (rat SCI model [5]; SCI + KDS 2w, PI 10w): substantial population; also recorded: significantly increased | intensity of GABA and astrocytic DAO (rat SCI model [5]; SCI+KDS 6w): significantly reduced | intensity of proBDNF (rat SCI model [5]; SCI+KDS 6w vs SCI+V): significantly increased | astrocytic GFAP and MAOB expression (rat SCI model [5]; SCI+KDS 6w vs SCI+V, PI 14w): significantly decreased | intensity of MAP2 (rat SCI model [5]; SCI+KDS 6w vs SCI+V, PI 14w): significant increase | intensity of MBP-positive TrkB (rat SCI model [5]; SCI+KDS 6w vs SCI+V, PI 14w): significantly increased | intensities of GFAP and GABA (rat SCI model [5]; [6]): significantly reduced | intensity of MAP2 (rat SCI model [5]; [6]): significant increase | intensity of MBP (rat SCI model [5]; [6]): significant recovery | intensity of MBP-positive TrkB (rat SCI model [5]; [6]): significant recovery | intensity of astrocytic DAO (rat SCI model [5]; [6]): significantly decreased | intensity of proBDNF (rat SCI model [5]; [6]): significantly increased | GFAP levels (rat SCI model [5]; SCI+KDS 1d/No): persistently high GFAP levels | alternative diamine oxidase (DAO) pathway (rat SCI model [5]; SCI+KDS 1d/No): activated | intensity of GABA and astrocytic DAO (rat SCI model [5]; SCI+KDS 1d/Re): significantly reduced | intensity of proBDNF (rat SCI model [5]; SCI+KDS 1d/Re vs SCI+V and SCI+KDS 1d/No): significantly increased | astrocytic GFAP and MAOB expression (rat SCI model [5]; [7]): significantly decreased | intensity of MAP2 (rat SCI model [5]; [7]): significant increase | astrocytic MAOB expression (rat SCI model [5]; all doses (10mpk, 20mpk, 30mpk) vs SCI+V, PI 10w): significant reduction | expression of CSPGs (neurocan, phosphacan) (rat SCI model [5]; rat SCI, KDS2010 treatment): notably reduced
